Experimental data: patent publication EP3769768A1, “COMPOUNDS USEFUL FOR THE TREATMENT OF PARKINSON S DISEASE” (priority 2019, dated 2021)
Like-named read-outs stand apart in the source and are kept apart here.

Key:
[1] = system: lymphoblasts from G2019S LRRK2 PD patients; conditions: for Centrosomal cohesion deficits: three lymphoblast lines from G2019S LRRK2 PD patients, short-term application of LRRK2 kinase inhibitor, Figure 1A; for reversal of the cohesion deficit: five G2019S LRRK2 PD patients, dose-response
Excerpt: Peripheral blood mononuclear cells (PBMCs) were collected and processed according to manufacturer's instructions, and lymphocytes were immortalized by infection with Epstein-Barr virus (EBV) as described. Briefly, cell lines were established from freshly isolated or cryopreserved lymphocytes using standard EBV transformation protocols which include cell separation by gradient centrifugation and lymphocyte growth enhancement by 1% (v/v) of the mitogenic phytohemagglutinin-M (PHA-M, ThermoFisher Scientific, 10576015). Cell lines were maintained in RPMI 1640 medium supplemented with 20 % fetal bovine serum, 2 % L-glutamine, 20 units/mL penicillin and 20 µg/ml streptomycin in T75 flasks in 5 % CO2 at 37 °C. Cells were maintained at a density of 10^6 cells/mL, with cell density monitored every other day using trypan blue staining.
Coverslips (13 mm diameter) were placed into 24-well plates and coated with Cell-Tak Cell and Tissue Adhesive solution (Corning, nr. 354240) according to manufacturer's instructions. After 20 minutes incubation at room temperature, the solution was removed, and coverslips were rinsed twice with distilled water followed by air-drying. Lymphoblast cells (200,000/well) were added to dry coated coverslips, and cells attached by slight centrifugation at 690 g for 10 minutes at room temperature (without brake). Cells were fixed with 2 % paraformaldehyde (PFA) in phosphate-buffered saline (PBS) for 20 minutes at room temperature, followed by 5 min of ice-cold methanol fixation before permeabilization with 0.2% Triton-X100/PBS for 20 min. After blocking for 1 hour in 0.5% BSA (w/v) in 0.2% Triton-X100/PBS (blocking buffer), cells were incubated with primary antibodies overnight at 4 °C in blocking buffer. Primary antibodies included mouse monoclonal anti-γ-tubulin (1:1000; Abcam ab11316), rabbit polyclonal anti-pericentrin (1:1000; Abcam ab4448) or rabbit monoclonal anti-phospho-Rab10 (1:100; Abcam ab237703). The following day, coverslips were washed three times 10 minutes in 0.2% Triton-X100/PBS, followed by incubation with secondary antibodies (Alexa488-conjugated goat anti-mouse (1:1000; Invitrogen) and Alexa594-conjugated goat anti-rabbit (1:1000; Invitrogen)) in blocking buffer for 1 hour. Coverslips were washed three times in 0.2% Triton-X100/PBS, rinsed in PBS and mounted in mounting medium with DAPI (Vector Laboratories). For staining with the anti-phospho-Rab10 antibody, the methanol fixation was omitted, and 0.2% Triton-X100 was replaced by 0.1% saponin throughout. For treatment of cells with MLi2, cells were seeded on coated coverslips as described above, and incubated with or without MLi2 (generous gift of D. Alessi, University of Dundee, UK) (or DMSO as control) at the indicated concentrations for two hours at 37 °C, before attachment by slight centrifugation followed by fixation as described above.
Images were acquired on a Leica TCS-SP5 confocal microscope using a 63X 1.4 NA oil UV objective (HCX PLAPO CS). Images were collected using single excitation for each wavelength separately, and dependent on secondary antibodies (488 nm Argon Laser line and a 498-551 nm emission band pass; 543 HeNe laser line and a 615-671 nm emission band pass; 405 nm UV diode and a 418-467 nm emission band pass). Around 30 image sections of selected areas were acquired with a step size of 0.5 µm, and z-stack images analyzed and processed using Leica Applied Systems (LAS AF6000) image acquisition software. The same laser intensity settings, exposure times and zoom were used for image acquisition of individual experiments to be quantified.

sporadic PD lymphoblasts = experiment: Centrosomal cohesion deficit in lymphoblasts from sporadic PD patients (immunofluorescence, confocal imaging); type: cell-based, human; conditions: subset of sporadic PD patients with deficit (not G2019S carriers); short-term application of 10 nM MLi2; Figures 4A to 4D
Excerpt: Peripheral blood mononuclear cells (PBMCs) were collected and processed according to manufacturer's instructions, and lymphocytes were immortalized by infection with Epstein-Barr virus (EBV) as described. Briefly, cell lines were established from freshly isolated or cryopreserved lymphocytes using standard EBV transformation protocols which include cell separation by gradient centrifugation and lymphocyte growth enhancement by 1% (v/v) of the mitogenic phytohemagglutinin-M (PHA-M, ThermoFisher Scientific, 10576015). Cell lines were maintained in RPMI 1640 medium supplemented with 20 % fetal bovine serum, 2 % L-glutamine, 20 units/mL penicillin and 20 µg/ml streptomycin in T75 flasks in 5 % CO2 at 37 °C. Cells were maintained at a density of 10^6 cells/mL, with cell density monitored every other day using trypan blue staining. […]
Images were acquired on a Leica TCS-SP5 confocal microscope using a 63X 1.4 NA oil UV objective (HCX PLAPO CS). […] Around 30 image sections of selected areas were acquired with a step size of 0.5 µm, and z-stack images analyzed and processed using Leica Applied Systems (LAS AF6000) image acquisition software. The same laser intensity settings, exposure times and zoom were used for image acquisition of individual experiments to be quantified.

Row | SMILES | Centrosomal cohesion deficits [1] | Centrosomal cohesion deficits (sporadic PD lymphoblasts) | reversal of the cohesion deficit ([1]; 1 nM MLi2, Figures 3A and 3B) | reversal of the cohesion deficit ([1]; 10 nM MLi2, Figures 3A and 3B) | Centrosomal deficits in all G2019S LRRK2 PD samples ([1]; larger sampling, individual samples, Figure 4C) | centrosomal alterations ([1]; larger sampling, short-term application of 10 nM MLi2, Figures 4A and 4B) | centrosomal cohesion deficits upon removal of kinase inhibitor ([1]; washout of inhibitor, G2019S LRRK2 PD samples, Figures 3A and 3B)
1 | O=C(Nc1cccnc1)c1cc(-c2ccnc(F)c2)ccc1OCc1ccccc1 [GSK2578215A, 2-(benzyloxy)-5-(2-fluoropyridin-4-yl)-N-(pyridin-3-yl)benzamide] | could be reversed |  |  |  |  |  | 
2 | CC1CN(c2cc(-c3n[nH]c4ccc(OC5(C)CC5)cc34)ncn2)CC(C)O1 (centres unmarked) [MLi2, 3-(4-Pyrimidinyl) Indazole] | could be reversed | reverted | significant reversal | complete reversal | reverted by MLi2 in all cases | reverted | reverted back to the ones observed in the absence of inhibitor
